Data: US10213506B2, “Targeting immunotherapy for amyloidosis” (UNIVERSITY OF TENNESSEE RESEARCH FOUNDATION, priority 2014, dated 2019)

Experiments:
AA amyloid = test: In vivo pre-targeting of 125I-11-1F4 to systemic AA amyloid; details: AA mice, ~400 μg unlabeled peptide, 24 h post injection of 11-1F4
Method: (§1) Systemic visceral AA amyloidosis was induced in H2-L^d-huIL-6 Tg Balb/c transgenic mice that constitutively express the human interleukin-6 transgene, by iv injection of 10 μg of purified, splenic AA amyloid (amyloid enhancing factor; AEF) in 100 μL of sterile phosphate-buffered saline (PBS). Peptide p66 pre-targeting of ^125I-11-1F4 was evaluated in mice at 3-4 wk post AEF injection when amyloid load was modest.
(§2) Three cohorts of 3 mice, each received ˜400 μg of unlabeled peptide p66, and a second group of 3 cohorts were given peptide p5+14 as a control. Twenty-four hours after the peptide injection all mice were administered ˜150 μCi (˜20 μg) of ^125I-11-1F4 IV in the lateral tail vein. One group of p66 mice (n=3) and one group of p5+14 control mice (n=3) were euthanized at 24, 48 and 72 h post injection of 11-1F4 mAb and the organs harvested at necropsy for fixation, followed by microautoradiographic and immunohistochemical analyses.
For autoradiography, 6-μm-thick sections were cut from formalin-fixed, paraffin-embedded blocks, containing tissues from mice that had received ^125I-p66. The sections were placed on Plus microscope slides (Fisher Scientific), dipped in NTB-2 emulsion (Eastman Kodak), stored in the dark, and developed after a 4 day exposure. Each section was counterstained with hematoxylin and eosin. […]

liver macrophages = test: Liver macrophage staining (Iba-1) after in vivo pre-targeting; details: AA mice pre-injected with the peptide, 72 h post injection of 11-1F4 mAb
Method: as §1, §2
The presence of macrophages was detected by staining with mAb Iba-1 (1:8000 diln) followed by addition of biotinylated rabbit anti-mouse secondary reagent (Vector Rabbit Elite kit). The slides were developed, as described above. All tissue sections were examined using a Leica DM500 light microscope fitted with cross-polarizing filters (for Congo red). Digital microscopic images were acquired using a cooled CCD camera (SPOT; Diagnostic Instruments).

[1] = test system: synthetic and naturally-occurring amyloid samples; test: 125I-peptide pull-down assay; type: binding
Method: To evaluate the binding of p66 and p5+14 to synthetic and naturally-occurring amyloid, peptides p66 or p5+14 were radiolabeled with iodine-125 (I-125, ^125I) using oxidation with chloramine T (1 mg/ml in water freshly made. Free 1-125 was removed from the reaction mixture by size exclusion chromatography using a Sephadex G-25 solid phase and a 0.1% (w/v) gelatin in PBS mobile phase. Fractions of ˜250 μl were collected and the radioactivity in each measured using a gamma counter (Packard Cobra II auto-gamma counter). Peptide fractions with peak radioactivity were pooled and used for the “pull-down” assays.
For the pull down assay, ^125I-labeled peptide binding to murine: (m) AA and wild type (WT) liver homogenates (25 μl); rVλ6Wil (AL), Aβ(1-40) and islet amyloid polypeptide (IAPP) synthetic fibrils (25 μg), and; transthyretin-associated (ATTR), ALκ4-Cab and ALλ1-Ship human amyloid extracts (50 μg). The ^125I-peptides were prepared in PBST (0.15 M NaCl) or PBST with 1 M NaCl. Ten μl (˜5 ng, ˜100,000 counts per min [cpm]) of the ^125I-peptide solution was added to each test sample in a 200 μl volume. The reaction mixtures were rotated for 1 h at RT, then centrifuged twice at 16,000× g for 10 min. After each step the supernatants were removed and collected in test tubes. The pellets, obtained following the second spin were resuspended in PBST. The radioactivity in both the supernatant and pellet samples were measured using a Packard Cobra II auto-gamma counter. The bound peptide, expressed as % total was calculated according to: Bound peptide(% total)=(Pellet cpm)/(Pellet cpm+Supernatant cpm)

human ATTR amyloid = molecular target: T1, human ATTR amyloid (Homo sapiens, UniProt P02766); test: Pre-targeting immunohistochemistry on ATTR-laden tissue sections; type: binding; details: biotinylated peptide without mAb; compared with Congo red
T1 construct: human ATTR-laden formalin-fixed paraffin embedded tissue sections; from tissue
Method: The pre-targeting efficacy of peptide p5+14 in conjunction with mAb clones 4, 5, 12, or 13 was further evaluated using human ATTR-laden formalin-fixed paraffin embedded tissue sections. More particularly, six micrometer-thick sections, cut from formalin-fixed, paraffin embedded human transthyretin (TTR) amyloid-laden tissue, were subjected to antigen retrieval by incubation with CitraPlus (BioGenex, San Ramon, Calif.) for 30 min at 90° C. Peptide p5+14 was added to the tissue at ˜3 μg/mL (30× molar excess over mAb) and incubated overnight at 4° C. Unbound reagent was removed by washing in PBST for 30 min. Tissues (with or without p5+14) were immunostained with a 3 μg/mL solution of biotinylated anti-peptide mAb (clones 4, 5, 12, or 13). Slides were developed by addition of streptavidin-HRP (Vectastain Elite ABC kit, Vector Labs) followed by 3,3′-diaminobezidene (Vector Labs).
By way of positive control, a biotinylated-p5+14 peptide (without mAb) was used to directly stain TTR amyloid in this tissue (red arrows, below), as described above.
To confirm the presence and distribution of amyloid in the tissue a consecutive slide was stained with Congo red. Briefly, tissues were incubated in Congo red solution (0.8% w/v Congo red, 0.2% KOH w/v in 80% ethanol) for 1 h at RT. Sections were then washed in water and counterstained by suspending in Mayer's hematoxylin for 2 min. […]

mAb clones = test: Capture of biotinylated negative control peptides by adsorbed mAbs; type: binding, murine; details: 100 ng/well
Method: More particularly, 96-well ELISA microplates were coated overnight with the indicated mAbs (500 ng/well), the wells were blocked with PBS/BSA solution before addition of biotinylated p5+14 peptide (100 ng/well). Biotinylated peptides, p5R and p31G (aka p5G) were used as a negative control. Following a wash step, detection of captured peptide was achieved by addition of europium-conjugated streptavidin as described above.

BSA-blocked wells = BSA-blocked wells (Bos taurus, UniProt P02769); test: p66 and 11-1F4 on BSA-blocked wells without fibrils; type: binding; details: no fibrils
[2] = In vivo binding of 125I-p66 in healthy WT mice; details: 125I-labelled peptide iv
Method: (§3) Imaging was performed using WT or AA amyloid mice (n=3) that were injected with ˜5 μg of ^125I-p66, 125 μCi in the lateral tail vein. After the appropriate uptake time (data for 4 and 72 h pi shown), mice were euthanized by isoflurane inhalation overdose. SPECT images were acquired using an Inveon trimodality imaging platform (Siemens Preclinical Solution, Knoxville, Tenn.) running Inveon Acquisition Workplace software (ver. 2.0). Low energy (^125I; 25-45 keV) gamma photons were acquired at each of 60, 16-sec projections with 90 mm of bed travel. A 1 mm-diameter, 5-pinhole (Mouse Whole Body) collimator was used at 30 mm from the center of the field of view. Data were reconstructed post hoc onto an 88×88×312 matrix with isotropic 0.50 mm voxels using a 3D ordered subset expectation maximization (OSEM) algorithm (8 iterations; 6 subsets).
(§4) Samples of liver, spleen, pancreas, kidneys, small and large intestines, stomach and heart were harvested post mortem from every mouse undergoing imaging with ^125I-p66. A sample of each was placed into a tared, plastic vial, weighed and the ^125I radioactivity measured using an automated Wizard 3 gamma counter (1480 Wallac Gamma Counter, Perkin Elmer). The biodistribution data were expressed as % injected dose/g tissue (% ID/g). In addition, samples of each tissue were fixed in 10% buffered-formalin for 24 h and embedded in paraffin for autoradiography. […]

AA amyloid deposits = test: In vivo binding of 125I-p66 in mice with systemic AA amyloidosis
Method: as §1, with “p66” for “p66 pre-targeting of ^125I-11-1F4”, “4-6” for “3-4”, “significant.” for “modest.”
as §3
CT data were acquired using an x-ray voltage biased to 80 kVp with a […] anode current, with 4×4 binning. A 225 msec exposure was used, and 360, 1-degree projections were collected. The data were reconstructed using an implementation of the Feldkamp filtered back-projection algorithm onto a 512×512×1296 matrix with isotropic 0.106 mm voxels. […]
as §4, with “ID/g).” for “ID/g). In addition, samples of each tissue were fixed in 10% buffered-formalin for 24 h and embedded in paraffin for autoradiography.”

Chain of BSA-blocked wells (P02769 25-607): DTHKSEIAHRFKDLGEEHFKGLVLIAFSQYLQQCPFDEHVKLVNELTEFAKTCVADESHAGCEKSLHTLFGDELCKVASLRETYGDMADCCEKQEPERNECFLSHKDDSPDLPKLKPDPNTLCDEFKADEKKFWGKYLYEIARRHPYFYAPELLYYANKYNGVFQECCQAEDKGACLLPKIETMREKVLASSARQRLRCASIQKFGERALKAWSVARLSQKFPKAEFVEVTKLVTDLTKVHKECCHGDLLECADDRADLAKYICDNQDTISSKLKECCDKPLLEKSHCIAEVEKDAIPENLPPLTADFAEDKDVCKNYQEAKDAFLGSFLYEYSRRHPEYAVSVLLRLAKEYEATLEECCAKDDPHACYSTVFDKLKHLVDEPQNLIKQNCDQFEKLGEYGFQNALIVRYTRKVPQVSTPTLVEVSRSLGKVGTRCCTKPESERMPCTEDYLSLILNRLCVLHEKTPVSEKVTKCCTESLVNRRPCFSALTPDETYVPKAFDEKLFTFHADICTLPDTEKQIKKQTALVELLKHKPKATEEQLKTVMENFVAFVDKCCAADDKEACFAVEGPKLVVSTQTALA

Substance: p5+14: SEQ ID NO: 17: KAQKAQAKQAKQAQKAQKAQAKQAKQAQKAQKAQAKQAKQ (KAQKAQAKQAKQAQKAQKAQAKQAKQAQKAQKAQAKQAKQ; Peptide p5+14)
- Peptide associated with AA amyloid in tissues (immunohistochemistry with clone 12-3) (AA amyloid): p5+14-coated AA amyloid in all tissues evaluated
- Liver macrophage infiltration (Iba-1 staining) (liver macrophages): induced macrophage infiltration
- Binding of 125I-peptide to amyloid samples (pull-down) ([1]; 0.15 M NaCl): bound equally well
- Binding of 125I-peptide to amyloid samples (pull-down) ([1]; 1.0 M NaCl): bound equally well
- Direct staining of ATTR amyloid by biotinylated peptide (human ATTR amyloid): co-localizes with amyloid deposits

Substance: p5G: SEQ ID NO: 3: GAQGAQAGQAGQAQGAQGAQAGQAGQ (GAQGAQAGQAGQAQGAQGAQAGQAGQ; Peptide p5G)
- Capture of biotinylated peptide by adsorbed mAb clones (mAb clones): not captured

Substance: p5R: SEQ ID NO: 2: RAQRAQARQARQAQRAQRAQARQARQ (RAQRAQARQARQAQRAQRAQARQARQ; Peptide p5R)
- Capture of biotinylated peptide by adsorbed mAb clones (mAb clones): not captured

Substance: p66: SEQ ID NO: 18: p5+14 fused via linker SVTVVT to 11-1F4 12-mer epitope KHYAAFPENLLI (KAQKAQAKQAKQAQKAQKAQAKQAKQAQKAQKAQAKQAKQSVTVVTKHYAAFPENLLI; Fusion protein between p66 and antibody epitope sequence 11-1F4)
- Peptide binding to BSA-blocked wells in the absence of fibrils (BSA-blocked wells): no peptide bound
- Binding to healthy tissues in vivo (micro-autoradiography) [2]: did not bind to any tissue
- Binding to amyloid deposits in vivo (micro-autoradiography vs Congo red) (AA amyloid deposits; 125I-labelled peptide iv, mice with systemic AA amyloidosis): specifically bound the amyloid deposits
- Reactivity with amyloid in vivo, notably liver, spleen, pancreas and intestines (SPECT/CT imaging and tissue biodistribution) (AA amyloid deposits; 125I-labelled peptide, AA mice): confirmed
- Time post injection at which liver amyloid could be visualized by SPECT imaging (AA amyloid deposits; 125I-labelled peptide, AA mice): at least 72 h
- Peptide associated with AA amyloid in tissues (immunohistochemistry with clone 12-3) (AA amyloid): associated specifically with AA amyloid
- Liver macrophage infiltration (Iba-1 staining) (liver macrophages): induced macrophage infiltration into the liver and clustering of macrophages around amyloid deposits to a greater degree
- Binding of 125I-peptide to amyloid samples (pull-down) ([1]; 0.15 M NaCl): bound equally well
- Binding of 125I-peptide to amyloid samples (pull-down) ([1]; 1.0 M NaCl): bound equally well
